Experimental data from patent US4800207A, “Hexahydropyrrolizine compounds useful as analgesics” (McNeilab, Inc., priority 1987, dated 1989).

Tested on: Mouse Acetylcholine-Bromide-Induced Abdominal Constriction
Assay: Mouse Acetylcholine-Bromide-Induced Abdominal Constriction Assay
Type: in vivo
Details: p.o. 30 minutes before 5.5 mg/kg i.p. acetylcholine bromide, ten minute observation; for % Inhibition 30 mg Kg (percent inhibition of writhing, % analgesia): at least 20 animals per group; for ED50: Mus musculus, po, four doses, probit analysis, read-out: ED50 (that dose which inhibits writhing by 50%)
Description: Mouse Acetylcholine-Bromide-Induced Abdominal Constriction Assay
The mouse acetylcholine-induced abdominal constriction assay, as described by Collier et al. in Brit. J. Pharmacol. Chemother, 32: 295-310, 1968, with minor modifications was one test used to assess analgesic potency. The test drugs or appropriate vehicle were administered p.o. and 30 minutes later the animals received an i.p. injection of 5.5 mg/kg acetylcholine bromide (Matheson, Coleman and Bell, East Rutherford, N.J.). The mice where then placed in groups of four into glass bell jars and observed for a ten minute observation period for the occurrence of a writhe which is defined as a wave of constriction and elongation passing caudally along the abdominal wall, accompanied by a twisting of the trunk and followed by extension of the hind limbs. The percent inhibition of writhing (equated to % analgesia) was calculated as follows: The % inhibition of writhing, i.e., % analgesia is equal to the difference between the number of control animals writhing and the number of drug-treated animals writhing times 100 divided by the number of control animals writhing.
At least 20 animals were used for control and in each of the drug treated groups. Four doses were used to determine each dose response curve and ED50 (that dose which inhibits writhing by 50%). The ED50 values and their 95% fiducial limits were determined by a computer assisted probit analysis.

Row | Structure (SMILES) | % Inhibition 30 mg Kg (percent inhibition of writhing, % analgesia) | ED50
1 | c1ccc(C2CCC3CCCN32)cc1 (stereo not drawn) [Example 1, Hexahydro-3-phenyl-1H-pyrrolizine] | 100% | 5.7 mg/kg
2 | Cc1ccc(C2CCC3CCCN32)cc1 (stereo not drawn) [Example 3d, Hexahydro-3-(4-methylphenyl)-1H-pyrrolizine] | 100% | –
3 | Brc1ccccc1C1CCC2CCCN21 (single isomer, unassigned) [2f (diasteriomer A), 3-(2-bromophenyl)hexahydro-1H-pyrrolizine] | 60% | –
4 | Brc1ccccc1C1CCC2CCCN21 (single isomer, unassigned) [2f (diasteriomer B), 3-(2-bromophenyl)hexahydro-1H-pyrrolizine] | 100% | 8.7 mg/kg
